# Source: patent publication US20090196871A1, “USE OF 4-PYRIDYLMETHYLPHTHALAZINES FOR CANCER TREATMENT” (priority 2001, published 2009)
# Assays:
# [1] = clinical; conditions: human, in vivo, po
# [2] = test system: metastatic colorectal cancer; experiment: Example 1: combination with oxaplatin/folinic acid/5-fluorouracil chemotherapy in patients; type: in vivo, human
# Experimental: 15 Patients with histologically confirmed metastatic colorectal cancer seven of which had previously received adjuvant chemotherapy are treated with a combination of 1-(4-chloro-anilino)-4-(4-pyridylmethyl)phthalazine and a chemotherapy regimen. The chemotherapy regimen is 85 mg/m^2 of oxaplatin on day 1, 200 mg/m^2 of folinic acid given as a 2 hour infusion on days 1 and 2, and S-fluorouracil administered as a bolus at a dose of 400 mg/m^2 followed by 600 mg/m^2 over 22 hours on days 1 and 2. The chemotherapy regimen is given every 14 days. […] The treatment is well-tolerated. […] Stable diseases are observed in 2 patients, minor responses in 3 patients and partial responses in 8 patients.
# [3] = Example 3: pharmacokinetic study, twice-daily dosing
# Experimental: (§1) The patients are monitored by dynamic contrast enhanced magnetic resonance imaging (DCE-MRI) of tumors to provide a measure of the bi-dimensional transfer constant (Ki) prior to treatment, on day 2 and after every 28 day cycle. In addition, tumor volume is measured by magnetic resonance imaging every 28 days, and full pharmacokinetic profiles are obtained on days 1 and 28.
# [4] = clinical; conditions: human, plasma, po
# [5] = test system: metastatic renal cell carcinoma; experiment: Example 2: once-daily oral monotherapy in patients; type: in vivo, human; conditions: 300, 750 or 1000 mg/day once a day orally
# Experimental: Ten patients having metastatic renal cell carcinoma, six of which had previous biologic therapy, are treated with 300, 750 or 1000 mg/day of 1-(4-chloroanilino)-4-(4-pyridyl-methyl)phthalazine administered once a day orally. Seven of the ten patients maintain stable disease for a median of 3 months.
# [6] = test system: advanced solid tumors; experiment: Example 4: once-daily oral dosing, Phase I, DCE-MRI, plasma VEGF, toxicity
# [7] = test system: tumor vascular permeability; experiment: Studies in humans (general statement); parameters: species or system human; conditions: in vivo
# [8] = test system: advanced solid tumors; experiment: Example 3: twice-daily oral dosing, safety and DCE-MRI of tumors
# Experimental: as §1
# [9] = combination with chemotherapy, of 15 patients
# [10] = among patients on 300, 500 and 1000 mg daily doses, twice daily
smiles,measurement,setting,value
Clc1ccc(Nc2nnc(Cc3ccncc3)c3ccccc23)cc1,Tmax,[1],1 to 2.5 h
same,decrease of systemic exposure (AUC) at steady-state compared to day 1,[1],approximately 30%
same,dose up to which dose proportional increase in exposure is observed,[1],up to 1000 mg/day
same,half-life,[1],3 to 6 h
same,minor responses observed,[2]; [9],3 patients
same,partial responses observed,[2]; [9],8 patients
same,stable diseases observed,[2]; [9],2 patients
same,tolerability of the treatment,"[2]; combined with oxaplatin, folinic acid, 5-fluorouracil every 14 days, 500, 1000 or 2000 mg/day single daily dose, 15 patients",well-tolerated
same,area under the curve (AUC),[3]; 300 mg total daily dose,82 ng·mL·h
same,area under the curve (AUC),[3]; 500 mg total daily dose,46 ng·mL·h
same,area under the curve (AUC),[3]; 1000 mg total daily dose,370 ng·mL·h
same,AUC,[4],~114 µM·h
same,median duration of stable disease,[5],3 months
same,patients maintaining stable disease,[5]; of ten patients,Seven
same,reduction in Ki (DCE-MRI) associated with non-progressive disease,[6]; colorectal cancer patients with liver metastasis,50-60%
same,rise in plasma VEGF levels,"[6]; responders at doses >1000 mg/day, within the first 28 days of treatment",up to 5 fold
same,dose-limiting toxicity,[6]; up to 2000 mg/day once daily,No dose-limiting toxicity
same,effect on tumor vascular permeability in humans,[7],reduce tumor vascular permeability
same,tolerability in humans,[7],well tolerated
same,grade 1 lethargy,[8]; [10],one
same,grade 2 lightheadedness,[8]; [10],4 patients
same,transient grade 3 elevations of liver transaminases,[8]; [10],2 patients
same,biological effect indicated by the study data,[8]; twice daily oral,reducing tumor perfusion/vascular permeability and slowing tumor growth
same,tolerability / drug-related SAEs,"[8]; twice daily oral, total daily doses 300-2000 mg",well tolerated with no drug-related SAEs
